Measured values published in ChEMBL document CHEMBL4725218, “Deep Learning Enhancing Kinome-Wide Polypharmacology Profiling: Model Construction and Experiment Validation” (J Med Chem, 2020).

How the values were obtained:
[1] = target: Vascular endothelial growth factor receptor 1 (Homo sapiens) (UniProt P17948); experiment: Inhibition of human VEGFR1 assessed as remaining enzyme activity at 0.1 uM
[2] = target: Serine/threonine-protein kinase B-raf (Homo sapiens) (UniProt P15056); experiment: Inhibition of human B-Raf assessed as remaining enzyme activity at 1 uM
[3] = target: RAF proto-oncogene serine/threonine-protein kinase (Homo sapiens) (UniProt P04049); experiment: Inhibition of human C-Raf assessed as remaining enzyme activity at 0.1 uM
[4] = target: Tyrosine-protein kinase FRK (Homo sapiens) (UniProt P42685); experiment: Inhibition of human PTK5 assessed as remaining enzyme activity at 1 uM
[5] = target: Tyrosine-protein kinase ABL2 (Mus musculus) (UniProt Q4JIM5); experiment: Inhibition of mouse ARG assessed as remaining enzyme activity at 0.01 uM
[6] = target: Tyrosine-protein kinase Lyn (Homo sapiens) (UniProt P07948); experiment: Inhibition of human LYN assessed as remaining enzyme activity at 0.01 uM
[7] = target: Mitogen-activated protein kinase 14 (Homo sapiens) (UniProt Q16539); experiment: Inhibition of human p38alpha assessed as remaining enzyme activity at 0.01 uM
[8] = target: BDNF/NT-3 growth factors receptor (Homo sapiens) (UniProt Q16620); experiment: Inhibition of human TRKB assessed as remaining enzyme activity at 1 uM
[9] = target: RAF proto-oncogene serine/threonine-protein kinase (Homo sapiens) (UniProt P04049); experiment: Inhibition of human RAF1 assessed as remaining enzyme activity at 0.1 uM
[10] = target: Epithelial discoidin domain-containing receptor 1 (Homo sapiens) (UniProt Q08345); experiment: Inhibition of human DDR1 assessed as remaining enzyme activity at 1 uM
[11] = target: LIM domain kinase 1 (Homo sapiens) (UniProt P53667); experiment: Inhibition of human LIMK1 assessed as remaining enzyme activity at 1 uM
[12] = target: Mitogen-activated protein kinase kinase kinase 20 (Homo sapiens) (UniProt Q9NYL2); experiment: Inhibition of human ZAK assessed as remaining enzyme activity at 1 uM
[13] = target: NT-3 growth factor receptor (Homo sapiens) (UniProt Q16288); experiment: Inhibition of human TRKC assessed as remaining enzyme activity at 0.01 uM
[14] = target: Platelet-derived growth factor receptor alpha (Homo sapiens) (UniProt P16234); experiment: Inhibition of human PDGFRAlpha assessed as remaining enzyme activity at 1 uM
[15] = target: Tyrosine-protein kinase ABL1 (Homo sapiens) (UniProt P00519); experiment: Inhibition of human ABL assessed as remaining enzyme activity at 0.1 uM
[16] = target: Tyrosine-protein kinase ABL1 (Mus musculus) (UniProt P00520); experiment: Inhibition of mouse Abl assessed as remaining enzyme activity at 0.01 uM
[17] = target: Tyrosine-protein kinase ABL1 (Mus musculus) (UniProt P00520); experiment: Inhibition of mouse Abl assessed as remaining enzyme activity at 0.1 uM
[18] = target: Vascular endothelial growth factor receptor 3 (Homo sapiens) (UniProt P35916); experiment: Inhibition of human VEGFR3 assessed as remaining enzyme activity at 0.01 uM
[19] = target: Cyclin-dependent kinase-like 2 (Homo sapiens) (UniProt Q92772); experiment: Inhibition of human CDKL2 assessed as remaining enzyme activity at 1 uM
[20] = target: Mitogen-activated protein kinase 14 (Homo sapiens) (UniProt Q16539); experiment: Inhibition of human p38alpha assessed as remaining enzyme activity at 1 uM
[21] = target: Vascular endothelial growth factor receptor 1 (Homo sapiens) (UniProt P17948); experiment: Inhibition of human VEGFR1 assessed as remaining enzyme activity at 1 uM
[22] = target: Macrophage colony-stimulating factor 1 receptor (Homo sapiens) (UniProt P07333); experiment: Inhibition of human FMS assessed as remaining enzyme activity at 0.01 uM
[23] = target: Tyrosine-protein kinase FRK (Homo sapiens) (UniProt P42685); experiment: Inhibition of human PTK5 assessed as remaining enzyme activity at 0.1 uM
[24] = target: Mitogen-activated protein kinase kinase kinase kinase 5 (Homo sapiens) (UniProt Q9Y4K4); experiment: Inhibition of human MAP4K5 assessed as remaining enzyme activity at 0.01 uM
[25] = target: T1, Ephrin type-A receptor 8 (Homo sapiens) (UniProt P29322); experiment: Inhibition of human EphA8 assessed as remaining enzyme activity at 0.1 uM
T1 sequence (whole entry): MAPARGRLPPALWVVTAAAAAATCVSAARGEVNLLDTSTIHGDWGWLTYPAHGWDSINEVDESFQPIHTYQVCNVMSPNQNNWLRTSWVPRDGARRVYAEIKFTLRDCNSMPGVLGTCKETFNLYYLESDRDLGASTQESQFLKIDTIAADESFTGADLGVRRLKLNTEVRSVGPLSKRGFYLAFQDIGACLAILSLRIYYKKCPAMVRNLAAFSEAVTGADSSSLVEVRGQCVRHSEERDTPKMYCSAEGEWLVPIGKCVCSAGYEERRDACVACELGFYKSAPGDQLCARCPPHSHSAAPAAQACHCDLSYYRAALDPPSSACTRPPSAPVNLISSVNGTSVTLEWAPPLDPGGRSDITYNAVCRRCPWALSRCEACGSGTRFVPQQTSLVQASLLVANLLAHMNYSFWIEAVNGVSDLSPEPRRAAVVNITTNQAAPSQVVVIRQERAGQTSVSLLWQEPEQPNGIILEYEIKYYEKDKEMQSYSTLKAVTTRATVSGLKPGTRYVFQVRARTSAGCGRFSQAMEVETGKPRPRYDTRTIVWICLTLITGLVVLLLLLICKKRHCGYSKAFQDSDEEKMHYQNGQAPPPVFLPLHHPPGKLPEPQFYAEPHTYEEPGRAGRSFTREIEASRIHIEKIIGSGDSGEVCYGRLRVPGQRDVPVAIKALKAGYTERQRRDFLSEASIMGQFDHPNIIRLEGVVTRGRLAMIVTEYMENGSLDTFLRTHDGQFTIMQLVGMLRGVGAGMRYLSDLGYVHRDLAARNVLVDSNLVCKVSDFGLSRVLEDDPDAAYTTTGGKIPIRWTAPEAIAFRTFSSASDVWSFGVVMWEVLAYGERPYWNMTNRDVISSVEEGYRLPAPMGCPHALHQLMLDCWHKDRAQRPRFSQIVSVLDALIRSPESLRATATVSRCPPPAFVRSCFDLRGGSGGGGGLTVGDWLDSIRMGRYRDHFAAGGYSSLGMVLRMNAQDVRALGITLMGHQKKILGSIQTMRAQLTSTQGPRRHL

[26] = target: RAF proto-oncogene serine/threonine-protein kinase (Homo sapiens) (UniProt P04049); experiment: Inhibition of human C-Raf assessed as remaining enzyme activity at 1 uM
[27] = target: Tyrosine-protein kinase ABL1 (Homo sapiens) (UniProt P00519); experiment: Inhibition of human ABL assessed as remaining enzyme activity at 1 uM
[28] = target: MAP kinase-interacting serine/threonine-protein kinase 2 (Homo sapiens) (UniProt Q9HBH9); experiment: Inhibition of human MNK2 assessed as remaining enzyme activity at 1 uM
[29] = target: BDNF/NT-3 growth factors receptor (Homo sapiens) (UniProt Q16620); experiment: Inhibition of human TRKB assessed as remaining enzyme activity at 0.1 uM
[30] = target: Homeodomain-interacting protein kinase 2 (Homo sapiens) (UniProt Q9H2X6); experiment: Inhibition of human HIPK2 assessed as remaining enzyme activity at 0.01 uM
[31] = target: Vascular endothelial growth factor receptor 2 (Homo sapiens) (UniProt P35968); experiment: Inhibition of human VEGFR2 assessed as remaining enzyme activity at 0.1 uM

Sequence of RAF proto-oncogene serine/threonine-protein kinase (Homo sapiens) (P04049 whole entry, the tested form may be a part): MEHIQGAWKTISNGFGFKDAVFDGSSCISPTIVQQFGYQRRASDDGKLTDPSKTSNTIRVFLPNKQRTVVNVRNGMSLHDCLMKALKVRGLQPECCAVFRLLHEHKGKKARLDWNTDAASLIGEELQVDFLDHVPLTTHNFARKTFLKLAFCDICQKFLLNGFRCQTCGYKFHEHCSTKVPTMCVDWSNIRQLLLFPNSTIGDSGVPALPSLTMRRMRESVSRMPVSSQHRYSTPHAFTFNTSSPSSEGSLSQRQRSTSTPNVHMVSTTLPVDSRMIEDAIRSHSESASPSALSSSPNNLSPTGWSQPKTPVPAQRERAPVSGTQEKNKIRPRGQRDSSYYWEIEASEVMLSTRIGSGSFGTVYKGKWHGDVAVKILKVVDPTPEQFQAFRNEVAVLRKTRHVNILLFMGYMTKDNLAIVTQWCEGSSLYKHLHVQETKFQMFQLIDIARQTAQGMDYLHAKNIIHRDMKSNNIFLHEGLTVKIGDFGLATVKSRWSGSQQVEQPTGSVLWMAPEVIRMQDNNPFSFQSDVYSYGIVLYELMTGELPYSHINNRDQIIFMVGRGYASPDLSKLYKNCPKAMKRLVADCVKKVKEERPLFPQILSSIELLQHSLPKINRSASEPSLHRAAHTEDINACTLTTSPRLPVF
Sequence of Mitogen-activated protein kinase 14 (Homo sapiens) (Q16539 whole entry): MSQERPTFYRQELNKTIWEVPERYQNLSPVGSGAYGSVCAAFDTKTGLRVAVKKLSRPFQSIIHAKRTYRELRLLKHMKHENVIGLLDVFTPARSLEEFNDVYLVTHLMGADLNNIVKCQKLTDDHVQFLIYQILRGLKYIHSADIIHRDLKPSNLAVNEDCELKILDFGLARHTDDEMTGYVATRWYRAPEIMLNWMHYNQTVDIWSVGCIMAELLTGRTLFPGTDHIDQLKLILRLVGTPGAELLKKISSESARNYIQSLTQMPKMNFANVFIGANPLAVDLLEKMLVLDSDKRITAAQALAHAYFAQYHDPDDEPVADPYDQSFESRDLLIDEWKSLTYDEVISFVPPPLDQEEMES
Sequence of Tyrosine-protein kinase FRK (Homo sapiens) (P42685 whole entry): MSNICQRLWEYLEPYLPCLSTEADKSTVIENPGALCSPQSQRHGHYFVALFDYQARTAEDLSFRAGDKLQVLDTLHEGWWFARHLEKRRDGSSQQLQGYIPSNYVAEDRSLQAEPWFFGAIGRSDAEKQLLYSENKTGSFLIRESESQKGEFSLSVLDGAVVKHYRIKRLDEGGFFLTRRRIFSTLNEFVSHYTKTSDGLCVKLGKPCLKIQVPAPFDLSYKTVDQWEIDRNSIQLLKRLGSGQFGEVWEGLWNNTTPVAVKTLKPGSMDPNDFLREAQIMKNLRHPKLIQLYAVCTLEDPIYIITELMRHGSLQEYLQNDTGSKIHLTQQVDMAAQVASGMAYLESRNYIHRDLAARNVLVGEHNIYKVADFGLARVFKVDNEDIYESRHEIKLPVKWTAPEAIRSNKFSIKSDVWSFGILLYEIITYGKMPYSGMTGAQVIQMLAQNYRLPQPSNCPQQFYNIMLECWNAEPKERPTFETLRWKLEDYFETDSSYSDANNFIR
Sequence of Tyrosine-protein kinase ABL1 (Mus musculus) (P00520 whole entry): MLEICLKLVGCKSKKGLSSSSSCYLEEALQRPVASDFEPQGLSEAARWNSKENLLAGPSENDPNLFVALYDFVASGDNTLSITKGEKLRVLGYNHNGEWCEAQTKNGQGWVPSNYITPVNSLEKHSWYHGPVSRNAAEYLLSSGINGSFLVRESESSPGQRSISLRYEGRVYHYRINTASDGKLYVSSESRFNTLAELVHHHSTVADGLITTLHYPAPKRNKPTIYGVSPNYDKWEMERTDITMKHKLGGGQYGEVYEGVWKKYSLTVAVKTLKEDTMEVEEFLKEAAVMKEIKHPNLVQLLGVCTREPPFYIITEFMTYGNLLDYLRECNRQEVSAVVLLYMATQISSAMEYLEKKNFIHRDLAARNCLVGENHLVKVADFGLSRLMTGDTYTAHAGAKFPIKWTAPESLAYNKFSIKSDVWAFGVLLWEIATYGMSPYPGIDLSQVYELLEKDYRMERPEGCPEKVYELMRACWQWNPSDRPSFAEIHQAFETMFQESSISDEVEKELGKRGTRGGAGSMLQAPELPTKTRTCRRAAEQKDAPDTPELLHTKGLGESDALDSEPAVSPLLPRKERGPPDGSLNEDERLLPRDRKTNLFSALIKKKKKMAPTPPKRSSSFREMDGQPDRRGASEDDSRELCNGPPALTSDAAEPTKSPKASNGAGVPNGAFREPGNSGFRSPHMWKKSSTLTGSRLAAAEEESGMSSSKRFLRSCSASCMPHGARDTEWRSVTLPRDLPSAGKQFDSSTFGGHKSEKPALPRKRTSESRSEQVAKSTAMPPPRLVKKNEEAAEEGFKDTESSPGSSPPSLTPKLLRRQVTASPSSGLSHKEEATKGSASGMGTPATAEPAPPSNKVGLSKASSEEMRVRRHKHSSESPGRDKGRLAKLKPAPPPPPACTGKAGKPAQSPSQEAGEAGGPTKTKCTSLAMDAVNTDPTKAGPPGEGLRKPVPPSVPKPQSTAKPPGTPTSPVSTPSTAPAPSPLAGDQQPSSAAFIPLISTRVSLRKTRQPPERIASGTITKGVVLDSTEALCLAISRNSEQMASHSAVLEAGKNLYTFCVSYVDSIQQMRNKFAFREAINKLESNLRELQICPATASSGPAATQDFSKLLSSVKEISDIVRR
Sequence of BDNF/NT-3 growth factors receptor (Homo sapiens) (Q16620 32-822 limits assumed): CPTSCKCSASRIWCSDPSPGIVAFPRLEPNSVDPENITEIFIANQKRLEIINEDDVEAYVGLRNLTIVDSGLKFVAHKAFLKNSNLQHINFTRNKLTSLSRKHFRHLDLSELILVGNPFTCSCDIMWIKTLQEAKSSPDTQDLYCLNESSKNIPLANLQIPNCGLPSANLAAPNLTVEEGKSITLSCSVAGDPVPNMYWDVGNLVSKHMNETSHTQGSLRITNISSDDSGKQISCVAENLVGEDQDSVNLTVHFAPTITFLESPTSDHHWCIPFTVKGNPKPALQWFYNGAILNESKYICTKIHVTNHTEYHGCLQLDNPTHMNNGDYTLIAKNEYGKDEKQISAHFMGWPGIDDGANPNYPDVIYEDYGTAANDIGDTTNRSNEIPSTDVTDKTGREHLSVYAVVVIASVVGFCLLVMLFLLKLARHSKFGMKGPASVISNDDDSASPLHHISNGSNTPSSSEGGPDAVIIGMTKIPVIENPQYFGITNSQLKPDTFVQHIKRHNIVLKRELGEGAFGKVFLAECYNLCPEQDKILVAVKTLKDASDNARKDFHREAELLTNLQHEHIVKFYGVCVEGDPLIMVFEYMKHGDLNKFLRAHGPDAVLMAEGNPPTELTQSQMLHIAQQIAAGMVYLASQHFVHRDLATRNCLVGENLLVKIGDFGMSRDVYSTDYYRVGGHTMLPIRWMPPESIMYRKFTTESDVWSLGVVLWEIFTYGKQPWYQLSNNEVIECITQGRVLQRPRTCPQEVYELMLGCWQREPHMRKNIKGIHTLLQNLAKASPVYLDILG
Sequence of Vascular endothelial growth factor receptor 1 (Homo sapiens) (P17948 whole entry): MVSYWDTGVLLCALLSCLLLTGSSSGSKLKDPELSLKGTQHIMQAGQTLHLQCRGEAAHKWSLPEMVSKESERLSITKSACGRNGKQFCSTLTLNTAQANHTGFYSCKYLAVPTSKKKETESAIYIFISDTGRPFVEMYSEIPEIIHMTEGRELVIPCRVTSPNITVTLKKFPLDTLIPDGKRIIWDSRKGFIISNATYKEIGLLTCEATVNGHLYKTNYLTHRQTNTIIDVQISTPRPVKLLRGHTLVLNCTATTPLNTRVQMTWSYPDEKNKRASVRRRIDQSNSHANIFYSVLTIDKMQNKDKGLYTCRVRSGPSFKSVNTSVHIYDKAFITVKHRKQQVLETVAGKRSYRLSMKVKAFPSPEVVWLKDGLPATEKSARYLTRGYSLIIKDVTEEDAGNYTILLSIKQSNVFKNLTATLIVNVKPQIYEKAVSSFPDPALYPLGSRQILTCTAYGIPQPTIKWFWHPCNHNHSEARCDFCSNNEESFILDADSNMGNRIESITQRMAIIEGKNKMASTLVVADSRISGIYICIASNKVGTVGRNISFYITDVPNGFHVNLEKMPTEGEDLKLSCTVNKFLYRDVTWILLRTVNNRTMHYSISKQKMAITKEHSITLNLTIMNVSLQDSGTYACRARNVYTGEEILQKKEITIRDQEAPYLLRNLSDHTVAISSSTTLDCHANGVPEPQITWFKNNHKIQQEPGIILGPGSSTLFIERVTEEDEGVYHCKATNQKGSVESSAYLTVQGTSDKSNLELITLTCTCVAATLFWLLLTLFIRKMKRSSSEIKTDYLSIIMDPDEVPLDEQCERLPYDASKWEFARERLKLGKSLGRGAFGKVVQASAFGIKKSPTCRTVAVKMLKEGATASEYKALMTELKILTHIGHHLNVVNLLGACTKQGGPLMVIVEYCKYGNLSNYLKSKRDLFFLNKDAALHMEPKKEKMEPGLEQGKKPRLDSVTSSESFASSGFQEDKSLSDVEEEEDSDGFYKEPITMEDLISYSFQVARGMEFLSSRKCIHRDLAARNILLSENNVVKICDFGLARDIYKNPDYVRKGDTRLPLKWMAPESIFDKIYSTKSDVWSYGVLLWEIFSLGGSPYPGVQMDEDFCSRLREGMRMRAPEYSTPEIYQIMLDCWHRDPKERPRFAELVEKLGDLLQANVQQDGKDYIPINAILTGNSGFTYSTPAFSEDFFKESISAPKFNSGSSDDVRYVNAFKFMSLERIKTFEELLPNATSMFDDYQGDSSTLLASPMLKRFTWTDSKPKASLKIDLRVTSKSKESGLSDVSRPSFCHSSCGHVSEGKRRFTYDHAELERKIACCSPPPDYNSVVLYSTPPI

**Q.** Which Activity [1] does the source give for `CNC(=O)c1cc(Oc2ccc(NC(=O)Nc3ccc(Cl)c(C(F)(F)F)c3)c(F)c2)ccn1` here?
**A.** 3%

**Q.** And the Activity [2]?
**A.** 8%

**Q.** What about the Activity [3] of the same molecule?
**A.** 57%

**Q.** And the Activity [4]?
**A.** 3%

**Q.** What about the Activity [5] of the same molecule?
**A.** 97%

**Q.** What about the Activity [6] of the same molecule?
**A.** 32%

**Q.** And the Activity [7]?
**A.** 100%

**Q.** And the Activity [8]?
**A.** 1%

**Q.** What about the Activity [9] of the same molecule?
**A.** 57%

**Q.** And the Activity [10]?
**A.** 11%

**Q.** And the Activity [11]?
**A.** 46%

**Q.** And the Activity [12]?
**A.** -1%

**Q.** What about the Activity [13] of the same molecule?
**A.** 54%

**Q.** What about the Activity [14] of the same molecule?
**A.** 35%

**Q.** What about the Activity [15] of the same molecule?
**A.** 49%

**Q.** And the Activity [16]?
**A.** 22%

**Q.** What about the Activity [17] of the same molecule?
**A.** -7%

**Q.** And the Activity [18]?
**A.** 38%

**Q.** And the Activity [19]?
**A.** 47%

**Q.** And the Activity [20]?
**A.** -6%

**Q.** And the Activity [21]?
**A.** 3%

**Q.** What about the Activity [22] of the same molecule?
**A.** 73%

**Q.** What about the Activity [23] of the same molecule?
**A.** 18%

**Q.** And the Activity [24]?
**A.** 104%

**Q.** What about the Activity [25] of the same molecule?
**A.** 44%

**Q.** And the Activity [26]?
**A.** 8%

**Q.** What about the Activity [27] of the same molecule?
**A.** 8%

**Q.** What about the Activity [28] of the same molecule?
**A.** 34%

**Q.** What about the Activity [29] of the same molecule?
**A.** 53%

**Q.** What about the Activity [30] of the same molecule?
**A.** 96%

**Q.** What about the Activity [31] of the same molecule?
**A.** 19%
